The values that follow come from US20230331720A1, “MEDIUM- OR MACRO-CYCLIC BENZYL-SUBSTITUTED HETEROCYCLE DERIVATIVES AND THEIR USES AS OREXIN-2 RECEPTOR AGONISTS” (Orexia Therapeutics Limited, priority 2020, published 2023).

Like-named read-outs stand apart in the source and are kept apart here.

The conditions of series [1]: DMF.
Series [2] deals with T1, human orexin type 2 receptor (hOX2R) (Homo sapiens, UniProt O43614).
T1 construct: expressed in transfected cells
T1 sequence (O43614 1-444): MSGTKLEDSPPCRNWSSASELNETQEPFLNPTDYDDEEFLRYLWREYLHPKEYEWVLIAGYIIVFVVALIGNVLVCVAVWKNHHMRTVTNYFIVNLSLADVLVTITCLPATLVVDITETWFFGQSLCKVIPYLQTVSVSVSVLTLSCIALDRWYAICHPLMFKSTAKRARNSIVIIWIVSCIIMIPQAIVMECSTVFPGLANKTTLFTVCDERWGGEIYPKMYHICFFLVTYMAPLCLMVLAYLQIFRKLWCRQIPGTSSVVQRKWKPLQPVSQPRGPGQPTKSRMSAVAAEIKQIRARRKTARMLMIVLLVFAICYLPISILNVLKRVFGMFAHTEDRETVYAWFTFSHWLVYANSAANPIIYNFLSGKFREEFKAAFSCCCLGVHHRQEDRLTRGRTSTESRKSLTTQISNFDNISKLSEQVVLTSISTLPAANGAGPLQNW
Kind of series: Orexin type 2 receptor agonist activity, intracellular Ca2+ (FLIPR TETRA). The series is classed as cell-based. To be noted: CHO cells expressing hOX2R, Ca2+ fluorescence area; for EC50: read-out: hOx2 pEC50 (converted). The method, then:
Stable cell line generation. Obtainment of cells stably expressing either human orexin type 2 or human orexin type 1 receptor; to obtain a stable cell line the Orexin receptor cDNA was inserted into pcDNA3.1(+) plasmid vector and clones identified by G418 drug resistance selection. […] A single clone for OX2R-CHO and OX1R-CHO were grown in bulk and frozen to generate a cell bank for routine screening.
Measurement of orexin type 2 receptor agonist activity. Chinese hamster ovary (CHO) cells expressing human orexin type 2 receptor (hOX2R) or human orexin type 1 receptor (hOX1R) were seeded in each well of 384 well black clear bottom plates (BD Flacon) at 10,000 cells per well and cultured for 24 hr in an Ham's F12 (Gibco) medium containing 10% fetal calf serum (Sigma Aldrich) under the conditions of 37° C., 5% CO2. After removal of the medium, 50 μl of assay buffer 1 (0.1% bovine serum albumin (Sigma Aldrich), 20 mM HEPES (Molecular Dimensions), […] probenecid (Sigma Aldrich), 1× Calcium 5 dye (Molecular Devices) in Hank's balanced salt solution (Invitrogen)) was added, and the cells were incubated for 60 min under the conditions of 37° C., 5% CO2. A test compound was dissolved in dimethyl sulfoxide (Sigma Aldrich) to 10 mM, and then diluted with assay buffer 2 (20 mM HEPES, Hank's balanced salt solution, 0.1% bovine serum albumin). For the reaction, a test compound solution (10 μl) was added using Fluorescent Imaging Plate Reader TETRA (FLIPR TETRA: manufactured by Molecular Devices), a fluorescence value (excitation wavelength 488 nm, measurement wavelength 570 nm) of each well was measured every one second for 2 min, and the agonist activity was determined using the area of the fluorescence value as an indicator of intracellular Ca^2+ concentration. The agonist activity of the test compound was calculated assuming that the fluorescence value of the well added with only the dilution buffer was 0% and the fluorescence value of the well added with 10 nM human orexin A (Tocris) buffer was 100%. As used herein, Emax indicates the value at 10 μM concentration when orexin A is converted to a full agonist (maximum value of agonist activity: 100%).

[3] abbreviates: amide bond, 13-membered ring, HATU/DIEA, DMF, 10.0 mM, 25.0 °C.

In turn, “N-(5-oxo-12-phenyl-2,3,5,6,7,8,9,10,16,16a-decahydro-1H-benzo[b]pyrrolo[2,1-e][1]oxa[6]azacyclododecin-1-yl)ethanesulfonamide_cis racemic” displayed a ring closure, yield after HPLC in series [1] (ether bond, 12-membered ring, K2CO3, 10.7 mM, 80.0 °C) of 10%.
Under “amide bond, 15-membered ring, HATU/DIEA, DMF, 8.9 mM, 25.0 °C”, “N-(5-oxo-4(2,1)-piperidina-1(1,2),2(1,3)-dibenzenacycloundecaphane-4^3-yl)methanesulfonamide_cis racemic” yielded a ring closure, isolated yield of 67%.
Turning to `O=C1CCCN2C(=O)CCOc3ccccc3-c3cc(ccc3F)CC12` (centres unmarked), the ring closure, isolated yield (from O=C(O)CCOc1ccccc1-c1cc(CC2NCCCC2=O)ccc1F, amide bond, 12-membered ring, HATU/DIEA, DMF, 0.54 mM, 25.0 °C, 12.0 h) was determined as 28.4%.
“N-(5-oxo-9-oxa-4(2,1)-piperidina-1(1,2),2(1,3)-dibenzenacyclononaphane-4^3-yl)methanesulfonamide_cis racemic” had a ring closure, isolated yield under setting [3] of 38%.
“N-((4^2S,4^3S)-5-oxo-4(2,1)-piperidina-1(1,2),2(1,3)-dibenzenacyclooctaphane-4^3-yl)methanesulfonamide”: the ring closure, isolated yield (amide bond, 12-membered ring, HATU/DIEA, DMF, 6.5 mM) stood at 6%.
In turn, `CN(C)S(=O)(=O)NC1CCCN2C(=O)CCOc3ccccc3-c3cccc(c3)CC12` (centres unmarked) yielded a ring closure, yield after HPLC in series [1] (from CN(C)S(=O)(=O)NC1CCCNC1Cc1cccc(-c2ccccc2OCCC(=O)O)c1, amide bond, 12-membered ring, HATU/DIEA, 0.4 mM, 20.0 °C, 12.0 h) of 29.9%.
“N-(5-oxo-6-aza-4(2,1)-piperidina-1(1,2),2(1.3)-dibenzenacyclo-undecaphane-4^3-yl)methanesulfonamide_cis racemic” had a ring closure, isolated yield (crosslinker bond, 15-membered ring, CDI/DIEA, DMF, 10.0 mM, 70.0 °C) of 23%.
On to “N-(1^3,1^5-difluoro-5-oxo-6-aza-4(2,1)-pyrrolidina-1-(1,2),2-(1,3)-dibenzena-cycloundecaphane-4^3-yl)ethanesulfonamide_cis racemic”, for which the ring closure, yield after HPLC in series [1] (crosslinker bond, 15-membered ring, CDI/DIEA, 52.5 mM, 25.0 °C) worked out at 11%.
As to “N-(5-oxo-4(2,1)-piperidina-1(1,2),2(1,3)-dibenzenacyclononaphane-4^3-yl)-methanesulfonamide_cis racemic”, the ring closure, isolated yield (amide bond, 13-membered ring, HATU/DIEA, DMF, 9.9 mM, 25.0 °C) was determined as 27%.
“N-((4^2S,4^3S)-5-oxo-8-oxa-4(2,1)-piperidina-1(1,2),2(1,3)-dibenzenacyclo-octaphane-4^3-yl)methanesulfonamide” showed a ring closure, yield after HPLC in series [1] (amide bond, 12-membered ring, HATU/DIEA, 2.31 mM, 25.0 °C) of 23.4%.
“N-(5-oxo-9-oxa-4(2,1)-pyrrolidina-1(1.2),2(1,3)-dibenzenacyclo-nonaphane-4^3-yl)ethanesulfonamide_cis racemic” yielded a ring closure, isolated yield under setting [3] of 49%.
Consider “N-((4^2,4^3S)-5-oxo-8-oxa-4(2,1)-piperidina-1(1,2),2(1.3)-dibenzenacyclo-octaphane-4^3-yl)ethanesulfonamide”, for which the ring closure, yield after HPLC in series [1] (amide bond, 12-membered ring, HATU/DIEA, 2.24 mM, 25.0 °C) came to 29.4%.
On to `CCS(=O)(=O)NC1CCN2C(=O)CCCCCCc3c(F)cc(F)cc3-c3cccc(c3)CC12` (racemic) [Compound A1-29, N-(1^3,1^5-difluoro-5-oxo-4(2,1)-pyrrolidina-1(1,2),2(1,3)-dibenzenacyclo-undecaphane-4^3-yl)ethanesulfonamide], for which the EC50 in series [2] was 100 to 1000 nM.
On the same count and under the same terms, in the case of `CS(=O)(=O)N[C@H]1CCCN2C(=O)CCCc3ccccc3-c3cccc(c3)C[C@@H]12` [Compound A1-67] it was 10 to 100 nM; in that of `CN(C)S(=O)(=O)N[C@H]1CCCN2C(=O)CCCc3ccccc3-c3cccc(c3)C[C@@H]12` [Compound A1-79], 1 to 10 nM.
For `CCS(=O)(=O)N[C@H]1CCN2C(=O)N(C)CCOc3ccccc3-c3cccc(c3)C[C@@H]12` [Compound A1-71], the EC50 in series [2] was 10 to 100 nM.
Regarding `CN(C)S(=O)(=O)N[C@H]1CCCN2C(=O)OCCOc3ccccc3-c3cccc(c3)C[C@@H]12` [Compound A1-77], the EC50 in series [2] is 10 to 100 nM.
For the compound `CCS(=O)(=O)NC1CCN2C(=O)OCCOc3ccccc3-c3cccc(c3)CC12` (centres unmarked) [Compound A1-22, N-(5-oxo-6,9-dioxa-4(2,1)-pyrrolidina-1(1,2),2(1.3)-dibenzenacyclo-nonaphane-4^3-yl)ethanesulfonamide], the “hOx2 pEC50” value in series [2] is given as “++ (7.0≤“++”<8.0)”.
In the case of `CS(=O)(=O)NC1CCCN2C(=O)NCCCCCc3ccccc3-c3cccc(c3)CC12` (racemic) [Compound A1-27, N-(5-oxo-6-aza-4(2,1)-piperidina-1(1,2),2(1.3)-dibenzenacyclo-undecaphane-4^3-yl)methanesulfonamide], the EC50 in series [2] is 1 to 10 nM.
`O=C1CCCN2C(=O)CCOc3cccc(F)c3-c3cccc(c3)CC12` (centres unmarked) yielded a ring closure, isolated yield (from O=C(O)CCOc1cccc(F)c1-c1cccc(CC2NCCCC2=O)c1, amide bond, 12-membered ring, HATU/DIEA, DMF, 0.49 mM, 25.0 °C, 12.0 h) of 27.7%.
Take `O=C1CCOc2ccccc2-c2cccc(c2)C[C@H]2[C@@H](NS(=O)(=O)CF)CCCN12` [Compound A1-80]: in series [2], the EC50 is 1 to 10 nM.
“N-(5-oxo-9-oxa-6-aza-4(2,1)-piperidina-1(1,2),2(1,3)-dibenzenacyclo-nonaphane-4^3-yl)methanesulfonamide_cis racemic” had a ring closure, isolated yield (crosslinker bond, 13-membered ring, CDI/DIEA, DMF, 97.5 mM, 70.0 °C) of 23%.
Consider `CCS(=O)(=O)N[C@H]1CCCN2C(=O)CCOc3ccccc3-c3cccc(c3F)C[C@@H]12` [Compound A1-100], for which the EC50 in series [2] was 1 to 10 nM.
Still for that read-out and setting: in the case of `CS(=O)(=O)N[C@H]1CCCN2C(=O)CCOc3ccccc3-c3cccc(c3)C[C@@H]12` [Compound A1-68] it was 10 to 100 nM; in that of `O=C1CCOc2ccccc2-c2cccc(c2)C[C@H]2[C@@H](NS(=O)(=O)CF)C3(CC3)CN12` [Compound A1-99], 10 to 100 nM; in that of `CCS(=O)(=O)N[C@H]1CCN2C(=O)N(C)CCCCCc3ccccc3-c3cccc(c3)C[C@@H]12` [Compound A1-10, N-((4^2S,4^3S)-6-methyl-5-oxo-6-aza-4(2,1)-pyrrolidina-1(1,2),2(1,3)-dibenzena-cycloundecaphane-4^3-yl)ethanesulfonamide], 0.1 to 1 nM.
Still for that read-out and setting: under `CCS(=O)(=O)NC1CCN2C(=O)CC/C=C/Cc3ccccc3-c3cccc(c3)CC12` (racemic) [Compound A1-53, (E/Z)—N-(5-oxo-4(2,1)-pyrrolidina-1(1,2),2(1,3)-dibenzenacyclodecaphan-8-en-4^3-yl)ethanesulfonamide] stands 10 to 100 nM.
Turning to `CCS(=O)(=O)N[C@H]1CCCN2C(=O)CCOc3ccccc3-c3cccc(c3)C[C@@H]12` [Compound A1-72], in series [2], the EC50 was 1 to 10 nM.
Turning to `CS(=O)(=O)NC1CCCN2C(=O)NCCOc3ccccc3-c3cccc(c3)CC12` (racemic) [Compound A1-15, N-(5-oxo-9-oxa-6-aza-4(2,1)-piperidina-1(1,2),2(1,3)-dibenzenacyclo-nonaphane-4^3-yl)methanesulfonamide], in series [2], the EC50 is 1 to 10 nM.
For `CS(=O)(=O)N[C@H]1CCCN2C(=O)OCCOc3ccccc3-c3cccc(c3)C[C@@H]12` [Compound A1-60], in series [2], the EC50 is 10 to 100 nM.
As to “N-(5-oxo-12-oxa-6-aza-4(2,1)-pyrrolidina-1(1,2),2(1,3)-dibenzenacyclo-dodeca phane-43-yl)ethanesulfonamide_cis racemic”, the ring closure, isolated yield (crosslinker bond, 16-membered ring, CDI/DIEA, THF/DMF 4:1, 10.0 mM, 70.0 °C) worked out at 38%.
As for `O=C1CCOc2ccc(F)cc2-c2cccc(c2)C[C@H]2[C@@H](NS(=O)(=O)CF)CCCN12` [Compound A1-91, 1-fluoro-N-((4^2S,4^3S)-15-fluoro-5-oxo-8-oxa-4(2,1)-piperidina-1(1,2),2(1,3)-dibenzenacyclooctaphane-4^3-yl)methanesulfonamide], in series [2], the EC50 was 1 to 10 nM.
